# From US8470766B2, “Protein kinase C therapy for the treatment of acute lung injury” (The Children's Hospital of Philadelphia, priority 2006, dated 2013)
# Test system: neutrophils
# Assay: TNF suppression of neutrophil apoptosis, kinase inhibitor pretreatment (initial studies)
# Assay type: cell-based
# Conditions: pretreatment with kinase inhibitor
# Text: δ-PKC has been identified as an important regulator of cytokine mediated anti-apoptotic and pro-inflammatory signaling in adherent neutrophils (Kilpatrick, L. E., et al. (2002) Am J Physiol Cell Physiol 283, C48-57; Kilpatrick, L. E., et al. (2004) Am J Physiol Cell Physiol 287, C633-42; Kilpatrick, L. E., et al. (2006) J Leukoc Biol. 80:1512-1521; Kilpatrick, L. E., et al. (2000) Am J Physiol Cell Physiol 279, C2011-8). Neutrophils undergo spontaneous apoptosis which can be suppressed in vitro by culturing cells in the presence of cytokines such as TNF (Kilpatrick, L. E., et al. (2002) Am J Physiol Cell Physiol 283, C48-57; Kilpatrick, L. E., et al. (2006) J Leukoc Biol. 80:1512-1521). […] Activation of caspases is one of the earliest markers of apoptosis occurring upstream of DNA fragmentation and PS externalization. Caspase 3 plays a critical role in spontaneous neutrophil apoptosis (Kilpatrick, L. E., et al. (2002) Am J Physiol Cell Physiol 283, C48-57; Daigle, I., Simon, H. U. (2001) Int Arch Allergy Immunol 126, 147-56; Scheel-Toellner, D., et al. (2004) Blood 104, 2557-64). […] However, recent reports have raised issues about the specificity of rottlerin as a δ-PKC inhibitor (Davies, S. P., et al. (2000) Biochem J 351, 95-105). To establish a role specifically for δ-PKC in the TNF-mediated anti-apoptotic signaling, a more specific inhibitor is required. […]
structure (smiles),measurement,value
CC(=O)c1c(O)c(C)c(O)c(Cc2c(O)c3c(c(C(=O)/C=C/c4ccccc4)c2O)OC(C)(C)C=C3)c1O [rottlerin],suppression of neutrophil apoptosis by TNF,inhibited
